# Columns and labels:
# [1] = system: NK cells with anti-CD20 bound Jeko target cells; assay: NK-mediated ADCC; assay type: cell-based, human; details: 1 μM, 18 hours
# Method: FIGS. 9A-9B show selective Inhibition of ITK preserved NK-mediated ADCC. FIG. 9A: Lymphocyte subsets (5 donors/cell type) were purified from the peripheral blood of 22 healthy donors. The expression of ITK and RLK, relative to the house keeping gene IPO8, were determined by qPCR. FIG. 9B: Peripheral blood NK cells from 7 healthy donors were co-cultured at a 10:1 ratio with anti-CD20 bound target cells (B-cell lymphoma line Jeko) and with inhibitors for 18 hours. Cell lysis was detected by viability dye using flow cytometry. The % dead target cells in samples treated with DMSO were set as the maximum lysis (100%).
# NK cells express both ITK and RLK (FIG. 9A). […] Peripheral blood NK cells from 7 healthy donors were co-cultured with an anti-CD20 bound target B-cell line at a ratio of 10:1 for 18 hours in the presence of the inhibitors over a range of concentrations up to 1 μM. Cell lysis was detected by flow cytometry using viability dye staining.
# [2] = system: bleomycin-induced pulmonary fibrosis; assay: Bleomycin-induced mouse pulmonary fibrosis model; assay type: in vivo; details: 10 and 30 mg/kg QD, day 7-21
# RLK = biological target: T1, RLK (Homo sapiens, UniProt P42681); assay: Human kinome profiling at 1.0 μM, RLK; assay type: biochemical; details: read-out: percent control, RLK
# T1 construct: purchased Invitrogen PV5860
# T1 sequence (P42681 whole entry): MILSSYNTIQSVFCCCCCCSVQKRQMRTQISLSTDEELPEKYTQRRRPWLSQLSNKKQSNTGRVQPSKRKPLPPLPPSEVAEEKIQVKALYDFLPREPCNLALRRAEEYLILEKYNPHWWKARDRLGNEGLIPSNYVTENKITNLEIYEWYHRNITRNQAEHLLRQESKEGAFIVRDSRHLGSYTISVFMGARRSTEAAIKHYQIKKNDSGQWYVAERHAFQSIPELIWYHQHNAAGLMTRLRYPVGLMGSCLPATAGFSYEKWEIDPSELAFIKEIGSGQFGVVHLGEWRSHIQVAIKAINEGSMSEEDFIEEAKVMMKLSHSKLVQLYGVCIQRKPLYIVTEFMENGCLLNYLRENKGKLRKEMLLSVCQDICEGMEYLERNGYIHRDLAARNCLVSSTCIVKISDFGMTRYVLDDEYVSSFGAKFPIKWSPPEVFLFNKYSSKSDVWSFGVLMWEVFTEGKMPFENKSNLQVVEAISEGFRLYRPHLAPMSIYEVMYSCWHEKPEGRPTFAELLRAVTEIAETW
# [3] = system: IFNγ production by CD4+ T cells; assay: T cell activation, IFNγ+CD4+ T cells; assay type: cell-based, human
# Method: Fresh PBMCs from healthy human donors were centrifuged and reconstituted at 0.312×10^6 cells/mL in RPMI 1640 medium+10% heat-inactivated FBS+1× penicillin streptomycin and 100,000 cells/well were distributed into 24 well tissue culture plate. Cells were incubated at 37° C. for 1 hour, followed by the addition of CPI 596 or vehicle. The cells were then incubated at 37° C. for 1 hour, followed by the addition of […] anti CD3 and anti CD28 (both eBioscience). Cells were incubated at 37° C. for 6 days, with supplemental media supplied on day 3. On Day 6, the cells were transferred to a 96 deep well plate, washed, and treated with 50 nM phorbol 12-myristate 13-acetate, 1 μg/mL ionomycin, and 1 μg/mL brefeldin A, and then incubated at 37° C. for 4 hours. The cells were then fixed and permeabilized using eBioscience Fox3/transcription factor staining buffer. Cells were treated with Fc block (BioLegend) and then stained with CD3 BV605, CD45RA PerCP-Cy5.5, Tbet PE, IFNγ AF488, IL-4 APC (BioLegend), CD4 PE-Cy7, cPARP AF700 (BD Biosciences), and CD8 Krome Orange (Beckman Coulter). For flow cytometry, 300,000 cells were acquired on Cytoflex (Beckman Coulter). Data were analyzed using Flowjo software. The percentage of CD4^+ T cells that were positive for IFNγ and IL 4 were reported.
# ITK [4] = biological target: T2, ITK (Homo sapiens, UniProt Q08881); assay: Human kinome profiling at 1.0 μM, ITK; assay type: biochemical; design: purchased Invitrogen
# T2 sequence (Q08881 1-620): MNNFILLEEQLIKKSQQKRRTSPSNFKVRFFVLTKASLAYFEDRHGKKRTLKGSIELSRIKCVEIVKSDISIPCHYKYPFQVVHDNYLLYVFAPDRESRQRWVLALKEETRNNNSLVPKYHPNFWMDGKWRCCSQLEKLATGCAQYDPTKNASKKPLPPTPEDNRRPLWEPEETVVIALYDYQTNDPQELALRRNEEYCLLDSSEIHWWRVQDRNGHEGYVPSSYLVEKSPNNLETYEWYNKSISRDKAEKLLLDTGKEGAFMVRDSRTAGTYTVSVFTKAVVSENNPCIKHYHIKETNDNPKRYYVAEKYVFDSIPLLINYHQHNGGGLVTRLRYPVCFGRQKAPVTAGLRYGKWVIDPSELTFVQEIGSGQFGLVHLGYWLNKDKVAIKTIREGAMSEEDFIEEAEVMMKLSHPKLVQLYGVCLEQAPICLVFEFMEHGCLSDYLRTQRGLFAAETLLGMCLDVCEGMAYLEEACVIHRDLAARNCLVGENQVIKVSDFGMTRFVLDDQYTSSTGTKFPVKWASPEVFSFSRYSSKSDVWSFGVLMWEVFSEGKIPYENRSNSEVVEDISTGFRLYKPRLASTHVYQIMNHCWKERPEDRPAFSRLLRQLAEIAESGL
# ZAP-70 = ZAP-70 (Homo sapiens, UniProt P43403); assay: Human kinome profiling at 1.0 μM, ZAP-70; assay type: biochemical; details: read-out: percent control, ZAP-70
# Sequence of ZAP-70 (P43403 whole entry): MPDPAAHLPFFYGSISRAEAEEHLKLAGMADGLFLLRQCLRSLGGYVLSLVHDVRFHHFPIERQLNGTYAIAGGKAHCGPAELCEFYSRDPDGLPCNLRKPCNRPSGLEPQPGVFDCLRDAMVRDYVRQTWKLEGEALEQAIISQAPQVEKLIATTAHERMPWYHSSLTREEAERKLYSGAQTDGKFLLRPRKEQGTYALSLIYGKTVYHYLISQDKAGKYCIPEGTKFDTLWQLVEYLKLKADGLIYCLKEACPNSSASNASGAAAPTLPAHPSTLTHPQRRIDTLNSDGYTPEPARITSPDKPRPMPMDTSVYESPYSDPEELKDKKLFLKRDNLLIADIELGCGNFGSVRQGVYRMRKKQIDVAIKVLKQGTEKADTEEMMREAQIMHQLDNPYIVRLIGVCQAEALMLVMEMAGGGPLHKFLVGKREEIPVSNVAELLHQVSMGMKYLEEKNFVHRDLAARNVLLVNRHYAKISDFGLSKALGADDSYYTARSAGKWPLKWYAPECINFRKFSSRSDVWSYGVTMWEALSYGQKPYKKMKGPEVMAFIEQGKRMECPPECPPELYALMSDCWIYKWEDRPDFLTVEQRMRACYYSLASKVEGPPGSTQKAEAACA
# ITK [5] = biological target: T3, ITK (Canis lupus familiaris, UniProt A0A8I3MMK2); assay: ITK occupancy in dog PBMC; assay type: in vivo; details: po, single 5 mg/kg PO
# T3 construct: from tissue; host or cells: PBMC of dosed dogs
# T3 sequence (A0A8I3MMK2 1-620): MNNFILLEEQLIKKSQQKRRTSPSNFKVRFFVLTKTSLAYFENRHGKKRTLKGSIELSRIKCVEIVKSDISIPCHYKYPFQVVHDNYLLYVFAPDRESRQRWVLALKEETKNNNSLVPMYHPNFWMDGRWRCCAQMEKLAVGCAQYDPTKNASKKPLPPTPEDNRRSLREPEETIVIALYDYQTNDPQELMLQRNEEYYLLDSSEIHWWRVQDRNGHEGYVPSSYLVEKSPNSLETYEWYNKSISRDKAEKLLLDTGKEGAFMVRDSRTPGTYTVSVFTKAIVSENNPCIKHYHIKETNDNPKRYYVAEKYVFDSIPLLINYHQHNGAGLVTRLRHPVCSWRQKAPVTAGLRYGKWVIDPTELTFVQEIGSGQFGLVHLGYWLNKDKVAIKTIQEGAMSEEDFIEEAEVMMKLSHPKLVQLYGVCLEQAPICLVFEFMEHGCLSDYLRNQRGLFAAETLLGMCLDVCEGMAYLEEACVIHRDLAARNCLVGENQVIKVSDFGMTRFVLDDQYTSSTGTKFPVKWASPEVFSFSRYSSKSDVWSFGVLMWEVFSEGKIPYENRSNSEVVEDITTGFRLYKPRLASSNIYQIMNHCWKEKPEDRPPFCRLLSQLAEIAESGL
# Method: The active site occupancy of ITK by a covalent inhibitor was measured using an irreversibly bound biotinylated probe in an immuno-electrochemiluminescence assay. The binding of an inhibitor and the probe to the ATP binding site is mutually exclusive. In lysates of immune cell lines or immune cells collected from treated animals, the biotinylated probe reacts with free (uninhibited) ITK and is subsequently captured on a streptavidin-coated surface and quantified. The free ITK in each sample is normalized by dividing it by either the lysate protein concentration (BCA protein assay, Pierce) or cell count of the sample. Normalized free ITK values are generated for samples collected prior to and after treatment from which occupancy was calculated using equation 7. Single cell suspensions of Jurkat cells, mouse splenocytes, dog PBMC or purified normal human T cells were prepared. Cell lysis was performed using a buffer containing CelLytic M (Sigma Aldrich) supplemented with protease and phosphatase inhibitors (Pierce). The cell pellet resuspended in lysis buffer was incubated at room temperature for 30 minutes when the lysate was clarified by centrifugation at 20,000×g for 5 minutes at 4° C. […] Read buffer (Mesoscale Diagnostics) diluted two-fold with water was dispensed into the wells of the plate which was read immediately using an MESO Quickplex SQ 120 instrument.
compound,measurement,setting,value
C=CC(=O)N1CCCN(C(=O)c2cc(Sc3cnc(NC(=O)C4CC4)s3)c(C)cc2OC)C[C@H]1C [CPI-818],decrease of ADCC,[1],20%
same,BALF leukocytes,[2],reduced
same,lung weight,[2],reduced
same,remaining activity at 1 µM,RLK,70%
same,effect on IFNγ production,"[3]; 1 μM, average across samples",19%
same,IFNγ-positivity,[3]; 10 μM,robustly inhibited
same,effect on percentage of IFNγ+CD4+ T cells,"[3]; up to 1 μM, average",< 20%
same,inhibition at 1 µM,ITK [4],> 95%
same,remaining activity at 1 µM,ZAP-70,59%
same,receptor occupancy at 5 mg/kg,ITK [5]; 2 h,91%
same,receptor occupancy at 5 mg/kg,ITK [5]; 24 h,31%

# Reference: patent publication US20250213587A1, “ITK INHIBITORS FOR INCREASING TH1 CELL ACTIVITY” (Corvus Pharmaceuticals, Inc., priority 2022, published 2025)
